System: ischemia-induced retinal neovascularization
Assay: Mouse model of retinopathy of prematurity (ROP), ischemia-induced retinal neovascularization
Type: in vivo, C57Bl/6 mice
Settings: for Activity At Dose Tested: intravitreal 20 micrograms, P17; for Mean % Reduction of Retinal Neovascularization In ROP Model: intravitreal injection of 1.0 microliters containing 20 micrograms of Test Compound at P12, neovascular area at P17 (Taurine solutions 3.0 mg/100 μL)
Procedure: Each test compound was prepared in sterile water for injection, containing 0.08 mg/100 μL of sodium chloride and 0.005 mg/100 μL of trisodium citrate, the concentration of the peptide was at a concentration of […] and pH=2.7 and dispensed by sterile filtration into sterile vials. The Taurine test compound was obtained from Sigma Aldrich company, which was >99% pure, and prepared the same way as mentioned previously, having a concentration of 3.0 mg/100 μL. The R-G-Cys(acid) at 2.0 mg/100 μL+Taurine at 3.0 mg/100 μL were prepared the same way as mentioned above
To screen the test compounds for activity against ischemia-induced retinal neovascularization, the well-established model of retinopathy of prematurity (ROP) in mice was used. Litters of C57Bl/6 mice were placed in 75% oxygen at postnatal day (P) 7, returned to room air at day (P) 12. The Pups were randomly assigned to treatment groups of 4 to 10 animals per group. The pups were treated as follows: Treatment eyes were treated by intravitreal injection of 1.0 microliters of solution containing 20 micrograms of Test Compound.
On post-natal day 17, 5 days after intravitreal injection, the animals were sacrificed, the retinas were flat mounted and the area of neovascularization in each retina was determined by Fluorescein-dextran image analysis.
Applicant has identified the tripeptide R-G-Cysteic(Acid) as an integrin binding motif of the oligopeptide Glycinyl-Arginyl-Glycinyl-Cysteic(Acid)-Threonyl-Proline (ALG-1001 or Luminate®, Allegro Ophthalmics, LLC). The trifluoroacetate (TFA) and acetate salts of the R-G-Cysteic(Acid) tripeptide (Test Compound Nos. 1 and 2) were tested in both the ROP Mouse Model as described above as well as in a mouse model of choroidal neovascularization induced by laser photocoagulation (“CNV Mouse Model”), as generally as described in Lambert, V., et al., Laser-Induced Choroidal Neovascarization Model to Study Age Related Macular Degeneration in Mice, Nature Protocols, 8; 2197-2211 (2013). […] In some of the experiments, an additional “Positive Control” group was included.
The following Table 1 summarizes the neovascularization inhibiting effect of each Test Compound at the dose tested. In each instance, the data was obtained using the ROP Mouse Model, except for the two table entries specifically labeled “CNV”. Only those table entries labeled “CNV” show data obtained from the CNV Mouse Model. Bar graphs showing the test results summarized in Table 1 are also provided herewith as FIGS. 1 through 27.

| Compound | Activity At Dose Tested | Mean % Reduction of Retinal Neovascularization In ROP Model |
| --- | --- | --- |
| NCCS(=O)(=O)O [Test Compound 25, Taurine, reference compound] | Slightly Active | 33% |
| Cyclo-{R-G-Cys(acid)-F—N—Me—V} Acetate [Test Compound 12] | Active | 57% |
| Cyclo-{R-G-D-D-F—NMe—V}•TFA [Test Compound 13] | Active | 75% |
| R-A-Cys (acid)•TFA [Test Compound 3] | Active | 60% |
| R-D-G•TFA [Test Compound 18] | Active | 44% |
| R-G-Cys(acid)-G-G-GD-G•TFA [Test Compound 7] | Active | 62% |

Reference: patent publication US20190062371A1, “PEPTIDE COMPOSITIONS AND RELATED METHODS” (Allegro Pharmaceuticals, Inc., priority 2017, published 2019)
